Data from US20190048052A1, “ANTI-MICROBIAL PEPTIDES AND COATINGS” (Board of Regents of the University of Nebraska, priority 2016, published 2019).
Values after ≈ are worked out from the molar mass of the structure shown. Read-outs that look alike come from different tables or passages of the source. Residues, ends and D or L forms follow the SMILES beside them.

What was measured:
[1] = tested on: S. aureus USA300; assay type: cell-based, Staphylococcus aureus; details: USA300
Description: The minimal bactericidal concentration (MBC) was determined by plating 50 μl of the content in the clear wells of the above MIC assays. MBC was determined on the petri dishes without bacterial colony formation after overnight growth (Wang et al. (2012) Biochemistry 51:653-664).

[2] = Hemolytic assay; assay type: cell-based; details: red blood cells, hemolysis
Description: Hemolytic analysis of selected peptides was performed using an established protocol (Mishra et al. (2015) RSC Advances 5:59758-59769). Briefly, human blood cells (UNMC Blood Bank) were washed three times with phosphate buffer saline (PBS) and diluted to a 2% solution. After peptide treatment, incubation at 37° C. for one hour, and centrifugation at 13,000 rpm, aliquots of the supernatant were transferred to a fresh 96-well microplate. To assess peptide cytotoxicity, the amount of hemoglobin released was measured at 545 nm. The percent lysis was calculated by assuming 100% release when human blood cells were treated with 1% TRITON™ X-100, and 0% release when incubated with PBS buffer. The hemolytic assays using chicken, bovine, and porcine blood cells (Lampire Biological Laboratories, Inc.) were performed in the same manner.

[3] = tested on: S. epidermidis 1457; assay type: cell-based, Staphylococcus epidermidis
How it was run: (§1)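 Broth microdilution: exponential-phase bacteria at 10^6 CFU incubated with serially diluted peptides ~20 hours at 37° C, read at 630 nm to give MICs. For S. aureus USA300, effects of up to 10% human serum, pH 6.8/7.4/8.0 and 150 mM NaCl also tested.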

[4] = tested on: C. glabrata ATCC 2001; assay type: cell-based, Candida glabrata; details: ATCC 2001, 48 h
Description: (§2) Fungal strains used in this study include Candida albicans ATCC 10231, C. glabrata ATCC 2001 and C. tropicalis ATCC 13803. The fungi were grown in Remel Dex broth (Thermo Fisher Scientific, KS). Antifungal assays were conducted essentially as described for antibacterial assays above, except for a higher starting density at an OD600 0.02 and a longer incubation time of ˜48 hours prior to microplate reading (Mishra et al. (2015) RSC Advances 5:59758-59769).

[5] = tested on: E. coli K12; assay type: cell-based, Escherichia coli; details: K12
How it was run: as §1

[6] = tested on: Candida albicans ATCC 10231; assay type: cell-based; details: ATCC 10231, 48 h
Description: as §2

[7] = tested on: C. tropicalis ATCC 13803; assay type: cell-based, Candida tropicalis; details: ATCC 13803, 48 h
Description: as §2

[8] = MTS cytotoxicity assay; assay type: cell-based; details: human
Description: (§3) HeLa CCL-2 epithelial adenocarcinoma cells from American Type Culture Collection (ATCC) were maintained in DMEM high glucose media with 4 mM L-glutamine (NyClone) and 100 U/mL penicillin, 100 μg/mL streptomycin (pen/strep) (Life Technologies), and 10% (v/v) inactivated fetal bovine serum (FBS) (NyClone). Cells were grown in 5% CO2 at 37° C. and were detached from the culturing dish at 80% confluency using 0.025% trypsin-EDTA (NyClone) treatment. Peptide influence on the cell viability was estimated by using the MTS assay according to the manufacturer's protocol (MTS, CellTiter96® AQ One Solution Cell Proliferation Assay, Promega) with minor modifications and as described elsewhere (Mishra et al. (2015) RSC Advances 5:59758-59769). In short, cells were cultured in flat bottomed 96 well microtiter plates (Corning Life Science) at a seeding density of 20,000 cells/well. At confluence ˜100% achieved after 20-24 hours of cultivation, the cells were washed twice with 100 μL Dulbecco's Phosphate Buffered Saline (Life Technologies). Further, 90 μL of DMEM media with 10% FBS, pen/step was added before exposure to 10 μL of the peptide solution in the concentration range 12.5-100 μM. Plates were incubated at 37° C. After 1 hour, 10 μL MTS, CellTiter96® was added. Plates were further incubated for another 2 hours at 37° C. and finally, the absorbance was measured on ChroMate® reader (Awareness Technology) at 492 nm. Culture medium and 0.2% SDS were used as negative and positive controls, respectively.
Human skin HaCaT (immortalized keratinocyte from AddexBio, T0020001) and kidney HEK293 cells were also cultivated for cytotoxicity evaluation of the peptides in a similar manner.

[9] = tested on: B. subtilis 168; assay type: cell-based, Bacillus subtilis
How it was run: as §1

[10] = MTS cytotoxicity assay; assay type: cell-based; details: human, HeLa CCL-2 cells
Description: as §3

[11] = tested on: S. aureus Mu50; assay type: cell-based, Staphylococcus aureus
How it was run: as §1

[12] = tested on: S. aureus UAMS-1; assay type: cell-based, Staphylococcus aureus
How it was run: as §1

[13] = tested on: S. aureus Newman; assay type: cell-based, Staphylococcus aureus
How it was run: as §1

[14] = tested on: S. aureus USA300; assay type: cell-based, Staphylococcus aureus; details: for Antimicrobial activity (MIC) 150 mM NaCl / Antimicrobial activity (MIC) USA300 / MIC S. aureus USA300: USA300; for Antimicrobial activity (MIC) pH 6.8: USA300, pH 6.8; for Antimicrobial activity (MIC) Normal medium (pH 7.4): USA300, pH 7.4; for Antimicrobial activity (MIC) pH 8: USA300, pH 8
How it was run: as §1

[15] = chicken, read-out: LC50 Chicken RBCs
[16] = human, read-out: LC50 Human RBCs
[17] = pig, read-out: LC50 Porcine RBCs

SMILES | MBC S. aureus USA300 [1] [µM] | HC50 at 1 hour [2, 15] [µM] | HC50 at 1 hour [2, 16] [µM] | HC50 at 1 hour [2, 17] [µM] | MIC S. epidermidis 1457 [3] [µM] | MIC Candida glabrata [4] [µM] | MIC E. coli K12 [5] [µM] | MIC Candida albicans [6] [µM] | MIC Candida tropicalis [7] [µM] | CC50 at 1 hour ([8]; HEK293 cells) [µM] | CC50 at 1 hour ([8]; HaCaT cells) [µM] | MIC B. subtilis 168 [9] [µM] | CC50 at 1 hour [10] [µM] | Antimicrobial activity (MIC) Mu50 [11] [µM] | Antimicrobial activity (MIC) UAMS-1 [12] [µM] | Antimicrobial activity (MIC) Newman [13] [µM] | change in MIC on drop of pH from 8 to 6.8 ([14]; S. aureus USA300) | Antimicrobial activity (MIC) 150 mM NaCl [14] [µM] | Antimicrobial activity (MIC) USA300 [14] [µM] | MIC S. aureus USA300 [14] [µM] | further results
CC[C@H](C)[C@H](NC(=O)[C@H](CCCCN)NC(=O)[C@H](CCCNC(=N)N)NC(=O)[C@H](CC(C)C)NC(=O)[C@H](Cc1c[nH]c2ccccc12)NC(=O)[C@H](Cc1c[nH]c2ccccc12)NC(=O)[C@@H](N)Cc1c[nH]c2ccccc12)C(=O)N[C@@H](Cc1c[nH]c2ccccc12)C(N)=O [TetraF2W-RK, WWWLRKIW] (H-WWWLRKIW-NH2; N-terminus assumed) | 12.5 (≈ 15.9 µg/mL) | 35 | 30 | 40 | 6.2 (≈ 7.89 µg/mL) | 12.5 (≈ 15.9 µg/mL) | 25 (≈ 31.8 µg/mL) | 12.5 (≈ 15.9 µg/mL) | 3.1 to 6.2 | 60 | 60 | 6.2 (≈ 7.89 µg/mL) | > 100 | 3.1 | 6.2 | 3.1 | two-fold | 3.1 | 3.1 | 3.1 (≈ 3.94 µg/mL) | Antimicrobial activity (MIC) pH 6.8 [14]: 6.2 μM; Antimicrobial activity (MIC) Normal medium (pH 7.4) [14]: 3.1 μM; Antimicrobial activity (MIC) pH 8 [14]: 3.1 μM
CC[C@H](C)[C@H](NC(=O)[C@H](CCCNC(=N)N)NC(=O)[C@H](CCCNC(=N)N)NC(=O)[C@H](CC(C)C)NC(=O)[C@H](Cc1c[nH]c2ccccc12)NC(=O)[C@H](Cc1c[nH]c2ccccc12)NC(=O)[C@@H](N)Cc1c[nH]c2ccccc12)C(=O)N[C@@H](Cc1c[nH]c2ccccc12)C(N)=O [TetraF2W-RR, WWWLRRIW] (H-WWWLRRIW-NH2; N-terminus assumed) | 3.1 (≈ 4.03 µg/mL) | 55 | 20 | 40 | 6.2 to 12.5 | >25 | 25 (≈ 32.5 µg/mL) | 25 (≈ 32.5 µg/mL) | 3.1 (≈ 4.03 µg/mL) | 70 | 70 | 3.1 to 6.2 | 60 | 3.1 | 6.2 | 3.1 | two-fold | 3.1 | 1.56 to 3.1 | 1.6 to 3.1 | fold more potent than temporin-SHf (anti-MRSA) ([14]; S. aureus USA300): 8 fold; Antimicrobial activity (MIC) pH 6.8 [14]: 6.2 μM; Antimicrobial activity (MIC) Normal medium (pH 7.4) [14]: 1.56-3.1 μM; Antimicrobial activity (MIC) pH 8 [14]: 3.1 μM
